Like-named read-outs stand apart in the source and are kept apart here.
Assays:
A2 receptor = biological target: T1, A2 receptor (Rattus norvegicus, UniProt P30543); experiment: A2 adenosine receptor binding, displacement of 3H-CGS 21680, rat brain striatum membranes; conditions: 3H-CGS 21680 displacement, rat brain striatum membranes, 25° C., 90 minutes; read-out: Adenosine Receptor Binding Activity/IC50 (nM) A2
T1 construct: using membranes from rat brain striatum; from tissue; host or cells: rat brain striatum membranes
T1 sequence (P30543 whole entry): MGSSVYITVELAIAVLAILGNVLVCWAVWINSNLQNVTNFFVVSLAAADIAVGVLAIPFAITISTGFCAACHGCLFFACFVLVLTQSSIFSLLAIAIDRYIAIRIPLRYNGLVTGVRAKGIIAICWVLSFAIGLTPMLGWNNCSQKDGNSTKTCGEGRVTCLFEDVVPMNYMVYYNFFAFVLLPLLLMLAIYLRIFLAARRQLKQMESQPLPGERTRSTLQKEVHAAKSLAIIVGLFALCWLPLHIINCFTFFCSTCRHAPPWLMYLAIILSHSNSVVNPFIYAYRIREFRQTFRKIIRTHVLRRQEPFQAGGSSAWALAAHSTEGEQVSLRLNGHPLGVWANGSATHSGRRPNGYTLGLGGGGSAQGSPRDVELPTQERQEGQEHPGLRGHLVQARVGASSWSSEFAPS
Method: Non-specific binding is assessed in the presence of 20 μm 2-chloroadenosine.
(§1) The assays are run in glass test tubes in duplicate at 25° C. Once the membranes are added, the tubes are vortexed and incubated at 25° C. for 60 minutes (A1 assay) or 90 minutes (A2 assay) on a rotary shaker. The assay tubes are vortexed halfway through the incubation and again near the end. The assays are terminated by rapid filtration through 2.4 cm GF/B filters using a Brandel Cell Harvestor. The test tubes are washed three times with cold 50 mM tris-HCl (pH 7.7 or 7.4), with filtration being completed within 15 seconds. The damp filter circles are placed in glass scintillation vials filled with 10 ml of Aquasol II (New England Nuclear). The vials are allowed to shake overnight on a rotary shaker and are placed into a liquid scintillation analyzer for two minute counts. IC50 values for receptor binding, i.e. the concentration at which a compound of Formula I displaced the radiolabeled standard, are obtained using a curve-fitting computer program (RS/1, Bolt, Beranek and Newman, Boston, Mass.).

A1 receptor = biological target: T2, A1 receptor (Rattus norvegicus, UniProt P25099); experiment: A1 adenosine receptor binding, displacement of 3H-CHA, whole rat brain membranes; conditions: 3H-CHA displacement, 25° C., 60 minutes
T2 construct: using a membrane preparation of whole rat brain; from tissue; host or cells: whole rat brain membranes
T2 sequence (P25099 1-326): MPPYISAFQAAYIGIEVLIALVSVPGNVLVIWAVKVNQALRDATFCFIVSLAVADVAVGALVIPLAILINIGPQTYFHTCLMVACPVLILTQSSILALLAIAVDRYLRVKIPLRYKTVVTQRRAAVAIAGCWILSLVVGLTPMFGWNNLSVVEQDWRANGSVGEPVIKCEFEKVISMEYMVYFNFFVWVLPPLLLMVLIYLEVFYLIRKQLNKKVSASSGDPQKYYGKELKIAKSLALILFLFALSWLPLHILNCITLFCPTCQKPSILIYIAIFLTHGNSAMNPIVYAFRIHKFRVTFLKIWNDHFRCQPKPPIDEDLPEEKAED
Method: Non-specific binding is assessed in the presence of 1 mM theophylline.
as §1

swine coronary arteries = experiment: In vitro vasorelaxation in isolated swine coronary arteries; assay type: cell-based
Method: Swine coronary arteries are obtained from a local slaughter house, dissected carefully and cleaned of fat, blood and adhering tissue. Rings approximately 2-3 mm wide are cut and transferred to water-jacketed tissue baths (10 mL) filled with warm (37° C.), oxygenated (O2/CO2:95%/5%) Krebs-Henseleit buffer and mounted on L-shaped hooks between stainless steel rods and a force transducer. […] PGF2a, before being exposed to 3 μM PGF2a.

[1] = Sus scrofa, read-out: Vasorelaxation in Swine Coronary Artery/IC50 (μM)
[2] = 50% reduction in tension of rings contracted with 3 μM PGF2a, read-out: Vasorelaxation in Swine Coronary Artery/IC50

IC50 (A2 receptor) | IC50 (A1 receptor) | IC50 (swine coronary arteries; [2]) | Compound | IC50 (swine coronary arteries; [1])
> 1000 nM | 417 nM |  | CCNC(=O)C1CC(n2cnc3c(NCCc4ccsc4)ncnc32)C(O)C1O (racemic) [Example 28, (±)-N^6-[1-(thiopen-3-yl)ethan-2-yl]carbocyclic adenosine-5′-N-ethyl carboxamide] | 
158 nM | 3.98 nM |  | CC(Cc1nccs1)Nc1ncnc2c1ncn2[C@@H]1O[C@H](CO)[C@@H](O)[C@H]1O (stereo partly shown) [Example 20, N^6-[1-(thiazol-2-yl)prop-2-yl]-adenosine] | 
> 1000 nM | 1.7 nM |  | OC[C@H]1O[C@@H](n2cnc3c(NCCc4nc(-c5ccccc5)cs4)ncnc32)[C@H](O)[C@@H]1O [Example 16, N^6-[2-(4′-phenyl-2′-thiazolyl)-ethyl]adenosine] | 
> 1000 nM | > 1000 nM | 19.1 µM | CCNC(=O)C1CC(n2cnc3c(N[C@H](C)Cc4ccc(Cl)s4)ncnc32)C2OC(C)(C)OC12 (single isomer, unassigned; (-)) [6(1)] | 
5250 nM | 67.6 nM | 18.8 µM | CC(C)(Cc1cccs1)Nc1ncnc2c1ncn2[C@@H]1O[C@H](CO)[C@@H](O)[C@H]1O [Example 17, N^6-[2-(1,1-dimethyl-2′-thiophenyl)ethyl]adenosine] | 
1000 nM | 36 nM | 0.75 µM | OC[C@H]1O[C@@H](n2cnc3c(NCc4nc(-c5ccccc5)cs4)ncnc32)[C@H](O)[C@@H]1O [Example 19] | 
43.4 nM | 8.8 nM | 0.493 µM | CCNC(=O)[C@H]1C[C@@H](n2cnc3c(N[C@@H](C)Cc4ccc(Cl)s4)ccnc32)[C@H](O)[C@@H]1O (relative stereo) [Example 36, [1S-[1a,2b,3b,4a(S*)]]-4-[7-[[2-(5-chloro-2-thienyl)-1-methylethyl]amino]-3H-imidazo[4,5-b]pyridin-3-yl]-N-ethyl-2,3-dihydroxycyclopentanecarboxamide] | 
> 1000 nM | 3.8 nM |  | OC[C@H]1O[C@@H](n2cnc3c(NCCSc4nc5ccccc5s4)ncnc32)[C@H](O)[C@@H]1O [Example 10, N^6-[2-(2′-thiobenzothiazolyl)-ethyl]adenosine] | 
8.9 nM | 0.03 nM |  | CCC(Cc1sccc1Cl)Nc1ncnc2c1ncn2[C@@H]1O[C@H](CO)[C@@H](O)[C@H]1O (stereo partly shown) [Example 31, N^6-[1-ethyl-2-(3-chlorothien-2-yl)ethyl]adenosine] | 
45 nM |  |  | C[C@H](Cc1sccc1Cl)Nc1ncnc2c1ncn2[C@@H]1O[C@H](CO)[C@@H](O)[C@H]1O [Example 32, N^6-[1-methyl-2-(3-chlorothien-2-yl)ethyl]adenosine] | 
46.8 nM | 3.98 nM |  | CCNC(=O)C1CC(n2cnc3c(NC(CC)Cc4sccc4Cl)ccnc32)C(O)C1O (single isomer, unassigned) [Example 39, [1S-[1a,2b,3b,4a(S*)]]4-[7-[[2-(3-chloro-2-thienyl)-1-ethylethyl]amino]-3H-imidazo[4,5-b]pyridin-3-yl]-N-ethyl-2,3-dihydroxycyclopentane-carboxamide] | 
> 1000 nM | 79.4 nM |  | Cc1nc(CCNc2ncnc3c2ncn3[C@@H]2O[C@H](CO)[C@@H](O)[C@H]2O)cs1 [Example 14, N^6-[2-(2′-methyl-4′-thiazolyl)-ethyl]adenosine] | 
158 nM | 14.2 nM |  | CCNC(=O)[C@H]1C[C@@H](n2cnc3c(N[C@H](CC)Cc4ccc(Cl)s4)ccnc32)[C@H](O)[C@@H]1O [Example 41] | 
331 nM | 55 nM | 0.316 µM | (2S)-2a,3a-dihydroxy-4β-[N6-[2-(5-chloro-2-thienyl)-(1R)-1-methylethyl]amino-9-adenyl]cyclopentane-1β-N-ethylcarboxamide-2,3-carbonate [Example 44] | 
14.8 nM | 0.09 nM |  | CCC(Cc1ccc(Cl)s1)Nc1ncnc2c1ncn2[C@@H]1O[C@H](CO)[C@@H](O)[C@H]1O (stereo partly shown) [Example 21, N^6-[1-(5″-chlorothien-2″-yl)-2-butyl]adenosine] | 

The next lines start with the compound.

Compound | IC50 (A2 receptor) | IC50 (A1 receptor) | IC50 (swine coronary arteries; [2]) | IC50 (swine coronary arteries; [1])
CCNC(=O)[C@H]1C[C@@H](n2cnc3c(N[C@H](C)Cc4ccc(Cl)s4)[n+]([O-])cnc32)[C@H](O)[C@@H]1O [Example 35, (2S)-2a,3a-dihydroxy-4β-[N6-[2-(5-chloro-2-thienyl)-(1R)-1-methylethyl]amino-9-adenyl]cyclopentane-1β-N-ethylcarboxamide-N^1-oxide] | 6350 nM | 1090 nM |  | 3.3 µM
CO[C@@H]1[C@H](O)[C@@H](CO)O[C@H]1n1cnc2c(N[C@H](C)Cc3sccc3Cl)ncnc21 [Example 47, N^6-[2-(3-chloro-2-thienyl)-(1R)-1-methylethyl]-2′-O-methyladenosine] | 2820 nM | 23 nM |  | 5.7 µM
CCNC(=O)[C@H]1C[C@@H](n2cnc3c(N[C@H](C)Cc4ccc(Cl)s4)ncnc32)[C@H](OC(=O)OC)[C@@H]1OC(=O)OC [Example 42, (2S)-2a,3a-bis-methoxycarbonyloxy-4β-[N6-[2-(5-chloro-2-thienyl)-(1R)-1-methylethyl]amino-9-adenyl]cyclopentane-1β-N-ethylcarboxamide] | > 10000 nM | > 1000 nM |  | 2.44 µM
CCNC(=O)C1CC(n2cnc3c(N[C@H](CC)Cc4sccc4Cl)ncnc32)C(O)C1O (single isomer, unassigned; (-)) [Example 34] | 23 nM | 1.6 nM | 0.072 µM | 
CCNC(=O)[C@H]1C[C@@H](n2cnc3c(N[C@H](C)Cc4ccc(Cl)s4)ncnc32)[C@H](OC(=O)NC)[C@@H]1OC(=O)NC [Example 45] | > 10000 nM | 6350 nM |  | 4.1 µM
CCNC(=O)[C@H]1C[C@@H](n2cnc3c(NC(CC)Cc4sccc4Cl)ccnc32)[C@H](O)[C@@H]1O (stereo partly shown) [Example 37] | 110 nM | 16.2 nM |  | 0.45 µM
CCNC(=O)[C@H]1O[C@@H](n2cnc3c(NC4CC=CCC4c4cccs4)ncnc32)[C@H](O)[C@@H]1O (single isomer, unassigned) [Example 5, N6-[trans-2-(thiophen-2-yl)cyclohex-4-en-1-yl]adenosine-5′-N-ethylcarboxamide] | 91 nM | 4.26 nM |  | 0.068 µM
CCNC(=O)C1CC(n2cnc3c(NC(C)Cc4cccs4)ncnc32)C(O)C1O (single isomer, unassigned; (-)) [Example 27] | 29.5 nM | 5.01 nM |  | 0.043 µM
CCNC(=O)[C@H]1C[C@@H](n2cnc3c(N[C@H](C)Cc4ccc(Cl)s4)ncnc32)[C@@H]2OC(OCC)O[C@@H]21 (stereo partly drawn) [Example 43, (2S)-2a,3a-dihydroxy-4β-[N6-[2-(5-chloro-2-thienyl)-(1R)-1-methylethyl]amino-9-adenyl]cyclopentane-1β-N-ethylcarboxamide ethoxymethylene acetal] | > 10000 nM | 8430 nM |  | 7.83 µM
CCNC(=O)[C@H]1O[C@@H](n2cnc3c(NC4CC=CCC4c4cccs4)ncnc32)[C@H](O)[C@@H]1O (single isomer, unassigned) [Example 22, N^6-[trans-2-(thiophen-2-yl)-cyclohex-4-en-1-yl]adenosine-5-N-ethyl carboxamide] | 29.5 nM | 2.69 nM |  | 0.1 µM
CCNC(=O)C1CC(n2cnc3c(NCCc4nccs4)ncnc32)C(O)C1O (racemic) [Example 25, (±)-N^6-[2-(2″-thiazolyl)ethyl]-carbocyclic adenosine-5′-N-ethyl carboxamide] | 355 nM | 1260 nM |  | 0.64 µM
